#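 All cell lines were grown in 96-well plates and treated with compound for 48 hours. GI50 = concentration required for 50% inhibition of growth.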 Activity calls are given as the source filed them. No stated cut-off is given here; in the data, active = GI50 up to about 1.1 µM and inactive = higher.
# Key:
# Assay in all cases: NCI anticancer screen, dose series, 48 h
# 786-0 = tested on: 786-0
# A498 = tested on: A498
# A549 = tested on: A549
# ACHN = tested on: ACHN
# BT-549 = tested on: BT-549
# CAKI-1 = tested on: CAKI-1
# CCRF-CEM = tested on: CCRF-CEM
# COLO 205 = tested on: COLO 205
# DU-145 = tested on: DU-145
# HCC 2998 = tested on: HCC 2998
# HCT-116 = tested on: HCT-116
# HCT-15 = tested on: HCT-15
# HL-60 = tested on: HL-60
# HOP-62 = tested on: HOP-62
# HOP-92 = tested on: HOP-92
# HT-29 = tested on: HT-29
# Hs-578T = tested on: Hs-578T
# IGROV-1 = tested on: IGROV-1
# K562 = tested on: K562
# KM12 = tested on: KM12
# LOX IMVI = tested on: LOX IMVI
# M14 = tested on: M14
# MCF7 = tested on: MCF7
# MDA-MB-231 = tested on: MDA-MB-231
# MDA-MB-435 = tested on: MDA-MB-435
# MDA-N = tested on: MDA-N
# MOLT-4 = tested on: MOLT-4
# Malme-3M = tested on: Malme-3M
# NCI-H226 = tested on: NCI-H226
# NCI-H23 = tested on: NCI-H23
# NCI-H460 = tested on: NCI-H460
# NCI-H522 = tested on: NCI-H522
# NCI/ADR-RES = tested on: NCI/ADR-RES
# OVCAR-3 = tested on: OVCAR-3
# OVCAR-4 = tested on: OVCAR-4
# OVCAR-5 = tested on: OVCAR-5
# OVCAR-8 = tested on: OVCAR-8
# PC-3 = tested on: PC-3
# RPMI-8226 = tested on: RPMI-8226
# RXF 393 = tested on: RXF 393
# SF-268 = tested on: SF-268
# SF-295 = tested on: SF-295
# SF-539 = tested on: SF-539
# SK-MEL-28 = tested on: SK-MEL-28
# SK-MEL-2 = tested on: SK-MEL-2
# SK-MEL-5 = tested on: SK-MEL-5
# SN12C = tested on: SN12C
# SNB-19 = tested on: SNB-19
# SNB-75 = tested on: SNB-75
# SR = tested on: SR
# TK-10 = tested on: TK-10
# U-251 = tested on: U-251
# UACC-257 = tested on: UACC-257
# UACC-62 = tested on: UACC-62
# UO-31 = tested on: UO-31
# EKVX = tested on: EKVX
# SK-OV-3 = tested on: SK-OV-3
# SW-620 = tested on: SW-620
smiles,measurement,setting,value
N#Cc1cc2c(n(C3OC(CO)C(O)C(O)C3O)c1=S)CCCCC2 (stereo not given),GI50,786-0,> 100 µM (inactive)
same,GI50,A498,> 100 µM (inactive)
same,GI50,A549,> 100 µM (inactive)
same,GI50,ACHN,> 100 µM (inactive)
same,GI50,BT-549,> 100 µM (inactive)
same,GI50,CAKI-1,> 100 µM (inactive)
same,GI50,CCRF-CEM,> 100 µM (inactive)
same,GI50,COLO 205,> 100 µM (inactive)
same,GI50,DU-145,> 100 µM (inactive)
same,GI50,HCC 2998,> 100 µM (inactive)
same,GI50,HCT-116,> 100 µM (inactive)
same,GI50,HCT-15,> 100 µM
same,GI50,HL-60,> 100 µM (inactive)
same,GI50,HOP-62,> 100 µM (inactive)
same,GI50,HOP-92,> 100 µM (inactive)
same,GI50,HT-29,> 100 µM (inactive)
same,GI50,Hs-578T,> 100 µM (inactive)
same,GI50,IGROV-1,> 100 µM (inactive)
same,GI50,K562,> 100 µM (inactive)
same,GI50,KM12,> 100 µM (inactive)
same,GI50,LOX IMVI,> 100 µM (inactive)
same,GI50,M14,> 100 µM (inactive)
same,GI50,MCF7,> 100 µM (inactive)
same,GI50,MDA-MB-231,> 100 µM (inactive)
same,GI50,MDA-MB-435,> 100 µM (inactive)
same,GI50,MDA-N,> 100 µM (inactive)
same,GI50,MOLT-4,> 100 µM (inactive)
same,GI50,Malme-3M,> 100 µM (inactive)
same,GI50,NCI-H226,> 100 µM (inactive)
same,GI50,NCI-H23,> 100 µM (inactive)
same,GI50,NCI-H460,> 100 µM (inactive)
same,GI50,NCI-H522,> 100 µM (inactive)
same,GI50,NCI/ADR-RES,> 100 µM (inactive)
same,GI50,OVCAR-3,> 100 µM (inactive)
same,GI50,OVCAR-4,> 100 µM (inactive)
same,GI50,OVCAR-5,> 100 µM (inactive)
same,GI50,OVCAR-8,> 100 µM (inactive)
same,GI50,PC-3,> 100 µM (inactive)
same,GI50,RPMI-8226,> 100 µM (inactive)
same,GI50,RXF 393,> 100 µM (inactive)
same,GI50,SF-268,> 100 µM (inactive)
same,GI50,SF-295,> 100 µM (inactive)
same,GI50,SF-539,> 100 µM (inactive)
same,GI50,SK-MEL-28,> 100 µM (inactive)
same,GI50,SK-MEL-2,> 100 µM (inactive)
same,GI50,SK-MEL-5,> 100 µM (inactive)
same,GI50,SN12C,> 100 µM (inactive)
same,GI50,SNB-19,> 100 µM (inactive)
same,GI50,SNB-75,> 100 µM (inactive)
same,GI50,SR,> 100 µM (inactive)
same,GI50,TK-10,> 100 µM (inactive)
same,GI50,U-251,> 100 µM (inactive)
same,GI50,UACC-257,> 100 µM (inactive)
same,GI50,UACC-62,> 100 µM (inactive)
same,GI50,UO-31,> 100 µM (inactive)
C=C1C[C@]23CC[C@@H]4C(CO)(CO)CC(=O)C[C@]4(C)[C@@H]2C(O)C[C@H]1C3 (stereo not given in full),GI50,786-0,> 100 µM (inactive)
same,GI50,A549,> 100 µM (inactive)
same,GI50,ACHN,> 100 µM (inactive)
same,GI50,BT-549,> 100 µM (inactive)
same,GI50,CAKI-1,> 100 µM (inactive)
same,GI50,CCRF-CEM,> 100 µM (inactive)
same,GI50,COLO 205,> 100 µM (inactive)
same,GI50,DU-145,> 100 µM (inactive)
same,GI50,EKVX,> 100 µM (inactive)
same,GI50,HCC 2998,> 100 µM (inactive)
same,GI50,HCT-116,> 100 µM (inactive)
same,GI50,HCT-15,> 100 µM
same,GI50,HL-60,> 100 µM (inactive)
same,GI50,HOP-62,> 100 µM (inactive)
same,GI50,HOP-92,> 100 µM (inactive)
same,GI50,HT-29,> 100 µM (inactive)
same,GI50,Hs-578T,> 100 µM (inactive)
same,GI50,IGROV-1,> 100 µM (inactive)
same,GI50,K562,> 100 µM (inactive)
same,GI50,KM12,> 100 µM (inactive)
same,GI50,LOX IMVI,> 100 µM (inactive)
same,GI50,M14,> 100 µM (inactive)
same,GI50,MCF7,> 100 µM (inactive)
same,GI50,MDA-MB-231,> 100 µM (inactive)
same,GI50,MDA-MB-435,> 100 µM (inactive)
same,GI50,MDA-N,> 100 µM (inactive)
same,GI50,MOLT-4,> 100 µM (inactive)
same,GI50,Malme-3M,> 100 µM (inactive)
same,GI50,NCI-H226,> 100 µM (inactive)
same,GI50,NCI-H23,> 100 µM (inactive)
same,GI50,NCI-H460,> 100 µM (inactive)
same,GI50,NCI-H522,> 100 µM (inactive)
same,GI50,NCI/ADR-RES,> 100 µM (inactive)
same,GI50,OVCAR-3,> 100 µM (inactive)
same,GI50,OVCAR-4,> 100 µM (inactive)
same,GI50,OVCAR-5,> 100 µM (inactive)
same,GI50,OVCAR-8,> 100 µM (inactive)
same,GI50,PC-3,> 100 µM (inactive)
same,GI50,RPMI-8226,> 100 µM (inactive)
same,GI50,SF-268,> 100 µM (inactive)
same,GI50,SF-295,> 100 µM (inactive)
same,GI50,SF-539,> 100 µM (inactive)
same,GI50,SK-MEL-28,> 100 µM (inactive)
same,GI50,SK-MEL-2,> 100 µM (inactive)
same,GI50,SK-OV-3,> 100 µM (inactive)
same,GI50,SN12C,> 100 µM (inactive)
same,GI50,SNB-19,> 100 µM (inactive)
same,GI50,SNB-75,> 100 µM (inactive)
same,GI50,SR,> 100 µM (inactive)
same,GI50,SW-620,> 100 µM (inactive)
same,GI50,TK-10,> 100 µM (inactive)
same,GI50,U-251,> 100 µM (inactive)
same,GI50,UACC-257,> 100 µM (inactive)
same,GI50,UACC-62,> 100 µM (inactive)
same,GI50,UO-31,> 100 µM (inactive)

# — ChEMBL document CHEMBL1201862, “PubChem BioAssay data set” (2004)
